What is called EC50 is the concentration at which the effect is half-maximal. The low end stands for higher potency in that assay, the high end for lower potency in that assay.

Data on 13 molecules can be found in patent US10519154B2, “7-substituted 1-pyridyl-naphthyridine-3-carboxylic acid amides and use thereof” (Bayer Pharma Aktiengesellschaft, priority 2016, dated 2019).

The target of test [1] is T1, human M2 receptor (Homo sapiens, UniProt P08172).
T1 sequence (P08172 1-466): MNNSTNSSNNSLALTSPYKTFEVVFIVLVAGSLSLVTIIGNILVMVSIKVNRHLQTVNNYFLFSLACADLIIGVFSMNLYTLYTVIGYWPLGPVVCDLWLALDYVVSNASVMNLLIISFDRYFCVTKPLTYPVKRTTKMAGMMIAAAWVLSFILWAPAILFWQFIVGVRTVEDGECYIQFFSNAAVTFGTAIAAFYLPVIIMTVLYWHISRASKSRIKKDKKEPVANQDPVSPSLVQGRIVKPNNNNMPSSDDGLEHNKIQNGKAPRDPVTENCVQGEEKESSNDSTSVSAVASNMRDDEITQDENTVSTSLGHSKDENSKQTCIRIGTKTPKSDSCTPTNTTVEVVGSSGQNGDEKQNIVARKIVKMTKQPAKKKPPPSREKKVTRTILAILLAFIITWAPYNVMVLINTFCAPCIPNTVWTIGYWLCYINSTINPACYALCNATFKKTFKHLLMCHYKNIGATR
Nature of the test: Functional M2-GIRK1/4 activation test: allosteric potency (EC50) and efficiency. Particulars: for EC50: Receptor activity EC50, CHO-DUKX-M2-GIRK cells, acetylcholine at EC20, in some cases mean of two or more determinations; for Emax: read-out: Efficiency, boosting of the acetylcholine effect at EC20 acetylcholine concentration, CHO-DUKX-M2-GIRK cells.

Test [2] addresses T1, human M2 receptor. Nature of the test: Functional M2-GIRK1/4 activation test: positive cooperativity (alpha factor). Particulars: shift of acetylcholine dose-response curve (Allosteric EC50 shift); CHO-DUKX-M2-GIRK cells.
Description: The binding of orthosteric agonists (endogenous ligand: acetylcholine) to the M2 receptor leads to receptor activation or a change in conformation of the receptor in the manner of a shift in equilibrium in favor of the active receptor conformation.
The agonist-induced change in conformation of the M2 receptor results in a Gαi protein activation. […] Under physiological conditions, the result is then a selective efflux of potassium from the cell along the electrochemical gradient. […] The extent of hyperpolarization can therefore be regarded as a measure of the activation of the M2 receptor.
The test cell used is a recombinant CHO-DUKX cell line which has been stably transfected with cDNA coding for the human M2 receptor and with cDNA coding for both GIRK1/4 subunits (CHO-DUKX-M2-GIRK). The transmembrane potential, or the relative changes in the transmembrane potential as a function of substance addition or M2 activation, is determined by means of a voltage-sensitive dye (FLIPR Membrane Potential Assay Kit Blue, Molecular Devices #R8034) and the measurement of cell fluorescence using a proprietary fluorescence imaging instrument.
In accordance with the desired test concentrations, the substances were pre-diluted in loading buffer (see above).
The sowing medium consisted of MEM alpha medium (supplemented with 5% FCS, 2% Glutamax, no genticin).
For the particular measurement, the medium was removed and the cells were laden with the voltage-sensitive dye for at least 6 min at room temperature (30 μl of loading buffer per 384-well). This was followed, in a first measurement, by the determination of the resting transmembrane potential for a period of 5 sec in 1 sec increments. Thereafter, 10 μl in each case of the test substances diluted in loading buffer are added, followed by a second measurement to determine the transmembrane potential for a period of 50 sec in 1 sec increments.
Finally, the cells are admixed with 10 μl of agonist solution (acetylcholine dissolved in loading buffer). In contrast to the EC50 determination of the test substances (see B-1.1), however, this is not done using one acetylcholine concentration; instead, every concentration of the test substance is combined with an acetylcholine 8-point dose-response curve. […] The M2-mediated GIRK1/4 activation or hyperpolarization is then monitored in a third measurement over a period of 60 sec in 1 sec increments. The shift in the acetylcholine dose-response curve in the presence of increasing concentrations of the test substance is analyzed and quantified by means of GraphPad PRISM (Allosteric EC50 shift). […] Positive cooperativity is the hallmark of a positive allosteric modulator. […] The greater the magnitude of the cc value, the greater the extent of cooperativity between orthosteric and allosteric.

Molecules are shown by their SMILES.

`CCC(NC(=O)c1cn(-c2ncc(F)cc2F)c2nc(N3CCNC3=O)ccc2c1=O)C(F)(F)C(F)(F)F` (single isomer, unassigned) [Example 165, 1-(3,5-Difluoropyridin-2-yl)-4-oxo-7-(2-oxoimidazolidin-1-yl)-N-[1,1,1,2,2-pentafluoropentan-3-yl]-1,4-dihydro-1,8-naphthyridine-3-carboxamide]: in test [1], the EC50 amounted to 13 nM and the Emax came to 84%. For the same molecule, the “Cooperativity (alpha factor)” value in test [2] came out at 30.
In the same order, the values of `O=C(N[C@@H](C1CC1)C(F)(F)F)c1cn(-c2ncc(F)cc2F)c2nc(N3C[C@@H](O)CC3=O)ccc2c1=O` [Example 14, N-[(1S)-1-Cyclopropyl-2,2,2-trifluoroethyl]-1-(3,5-difluoropyridin-2-yl)-7-[(4S)-4-hydroxy-2-oxopyrrolidin-1-yl]-4-oxo-1,4-dihydro-1,8-naphthyridine-3-carboxamide] are 87 nM, 98.5% and 50.
For `O=C(NC(C(F)(F)F)C(F)(F)F)c1cn(-c2ncc(F)cc2F)c2nc(N3C[C@@H](O)CC3=O)ccc2c1=O` [Example 15, 1-(3,5-Difluoropyridin-2-yl)-N-(1,1,1,3,3,3-hexafluoropropan-2-yl)-7-[(4S)-4-hydroxy-2-oxopyrrolidin-1-yl]-4-oxo-1,4-dihydro-1,8-naphthyridine-3-carboxamide], in that order: 43 nM, 96.2% and 63.
For `O=C(Nc1c(Cl)cccc1Cl)c1cn(-c2ncc(F)cc2F)c2nc(N3C[C@@H](O)CC3=O)ccc2c1=O` [Example 16, N-(2,6-Dichlorophenyl)-1-(3,5-difluoropyridin-2-yl)-7-[(4S)-4-hydroxy-2-oxopyrrolidin-1-yl]-4-oxo-1,4-dihydro-1,8-naphthyridine-3-carboxamide], in that order: 48 nM, 99% and 40.
Turning to `CC[C@H](NC(=O)c1cn(-c2ncc(F)cc2F)c2nc(N3CC(C)CC3=O)ccc2c1=O)C(F)(F)F` (stereo partly drawn) [Example 30, 1-(3,5-Difluoropyridin-2-yl)-7-[4-methyl-2-oxopyrrolidin-1-yl]-4-oxo-N-[(2S)-1,1,1-trifluorobutan-2-yl]-1,4-dihydro-1,8-naphthyridine-3-carboxamide], in test [1], it took 64 nM to reach a half-maximal effect (EC50) and the Emax was determined as 99%. Moreover, in test [2], the “Cooperativity (alpha factor)” value was 14.
Turning to `O=C(NC(C(F)(F)F)C(F)(F)F)c1cn(-c2ncc(F)cc2F)c2nc(N3C[C@@H](O)[C@@H](O)C3)ccc2c1=O` [Example 55, 1-(3,5-Difluoropyridin-2-yl)-7-[(3R,4S)-3,4-dihydroxypyrrolidin-1-yl]-N-(1,1,1,3,3,3-hexafluoropropan-2-yl)-4-oxo-1,4-dihydro-1,8-naphthyridine-3-carboxamide], in test [1], a half-maximal effect (EC50) was put at 110 nM and the Emax is 100%. Further, the “Cooperativity (alpha factor)” value in test [2] was 79.
With `O=C(NC(C(F)(F)F)C(F)(F)F)c1cn(-c2ncc(F)cc2F)c2nc(N3C[C@@H](O)[C@H](O)C3)ccc2c1=O` [Example 56, 1-(3,5-Difluoropyridin-2-yl)-7-[(3R,4R)-3,4-dihydroxypyrrolidin-1-yl]-N-(1,1,1,3,3,3-hexafluoropropan-2-yl)-4-oxo-1,4-dihydro-1,8-naphthyridine-3-carboxamide], in test [1], the EC50 was 34 nM and the Emax was 100%. Besides, the “Cooperativity (alpha factor)” value in test [2] was 68.
In the same order, the values of `CC[C@H](NC(=O)c1cn(-c2ncc(F)cc2F)c2nc(N3CCNC3=O)ccc2c1=O)C(F)(F)F` [Example 64, 1-(3,5-Difluoropyridin-2-yl)-4-oxo-7-(2-oxoimidazolidin-1-yl)-N-[(2S)-1,1,1-trifluorobutan-2-yl]-1,4-dihydro-1,8-naphthyridine-3-carboxamide] are 154 nM, 91.3% and 32.
For `O=C(Nc1c(Cl)cccc1Cl)c1cn(-c2ncc(F)cc2F)c2nc(N3C[C@@H](O)[C@H](O)C3)ccc2c1=O` [Example 67, N-(2,6-Dichlorophenyl)-1-(3,5-difluoropyridin-2-yl)-7-[(3R,4R)-3,4-dihydroxypyrrolidin-1-yl]-4-oxo-1,4-dihydro-1,8-naphthyridine-3-carboxamide], in that order: 53 nM, 97% and 36.
For `CC(C)(C)[C@@H](NC(=O)c1cn(-c2ncc(F)cc2F)c2nc(N3C[C@@H](O)CC3=O)ccc2c1=O)C(F)(F)F` [Example 73, 1-(3,5-Difluoropyridin-2-yl)-7-[(4S)-4-hydroxy-2-oxopyrrolidin-1-yl]-4-oxo-N-[(2R)-1,1,1-trifluoro-3,3-dimethylbutan-2-yl]-1,4-dihydro-1,8-naphthyridine-3-carboxamide], in that order: 10 nM, 100% and 68.
Regarding `CC(C)(C)[C@H](NC(=O)c1cn(-c2ncc(F)cc2F)c2nc(N3C[C@@H](O)CC3=O)ccc2c1=O)C(F)(F)F` [Example 98, 1-(3,5-Difluoropyridin-2-yl)-7-[(4S)-4-hydroxy-2-oxopyrrolidin-1-yl]-4-oxo-N-[(2S)-1,1,1-trifluoro-3,3-dimethylbutan-2-yl]-1,4-dihydro-1,8-naphthyridine-3-carboxamide], in test [1], a half-maximal response (EC50) required 23 nM and the Emax worked out at 100%. Also, in test [2], the “Cooperativity (alpha factor)” value worked out at 56.
In the same order, the values of `O=C(N[C@H](C1CC1)C(F)(F)F)c1cn(-c2ncc(F)cc2F)c2nc(N3C[C@@H](O)CC3=O)ccc2c1=O` [Example 138, N-[(1R)-1-Cyclopropyl-2,2,2-trifluoroethyl]-1-(3,5-difluoropyridin-2-yl)-7-[(4S)-4-hydroxy-2-oxopyrrolidin-1-yl]-4-oxo-1,4-dihydro-1,8-naphthyridine-3-carboxamide] are 70 nM, 98.5% and 61.
Consider `CC[C@@H](NC(=O)c1cn(-c2ncccc2F)c2nc(N3C[C@@H](O)CC3=O)ccc2c1=O)C(F)(F)F` [Example 140, 1-(3-Fluoropyridin-2-yl)-7-[(4S)-4-hydroxy-2-oxopyrrolidin-1-yl]-4-oxo-N-[(2R)-1,1,1-trifluorobutan-2-yl]-1,4-dihydro-1,8-naphthyridine-3-carboxamide], for which, in test [1], the EC50 came out at 253 nM and the Emax amounted to 92%. Besides, in test [2], the “Cooperativity (alpha factor)” value was found to be 47.
